From the supplement of paper PMC10307832

Experiments:
Assay in all cases: relative viability (nuclei count vs DMSO), 5 days (fraction); higher = more cells survive
MK-8033 + Vorinostat = compound: Cn1cc(-c2cnc3ccc4ccc(CS(=O)(=O)NCc5ccccn5)cc4c(=O)c3c2)cn1 [MK-8033] + O=C(CCCCCCC(=O)Nc1ccccc1)NO [Vorinostat] (partner 1 µM)
Method in brief: (§1)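 Relative viability equals treated-well nuclei counts divided by vehicle-well nuclei counts. Counts came from 4× images of lung cancer cell lines grown in 1536-well plates for 5 days after pin-tool dosing on the day after seeding. Dosing used one drug alone or a fixed anchor-drug dose plus five library-drug doses (not always all listed) in √10 steps, and values are medians of duplicate plates.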

MK-8033 + Decitabine = compound: Cn1cc(-c2cnc3ccc4ccc(CS(=O)(=O)NCc5ccccn5)cc4c(=O)c3c2)cn1 [MK-8033] + Nc1ncn([C@H]2C[C@H](O)[C@@H](CO)O2)c(=O)n1 [Decitabine] (partner 2 µM)
Method in brief: as §1

Irinotecan + Navitoclax = compound: CCc1c2c(nc3ccc(OC(=O)N4CCC(N5CCCCC5)CC4)cc13)-c1cc3c(c(=O)n1C2)COC(=O)[C@]3(O)CC [Irinotecan] + CC1(C)CCC(c2ccc(Cl)cc2)=C(CN2CCN(c3ccc(C(=O)NS(=O)(=O)c4ccc(N[C@H](CCN5CCOCC5)CSc5ccccc5)c(S(=O)(=O)C(F)(F)F)c4)cc3)CC2)C1 [Navitoclax] (partner 0.5 µM)
Method in brief: as §1

MK-8033 + AZD7762 = compound: Cn1cc(-c2cnc3ccc4ccc(CS(=O)(=O)NCc5ccccn5)cc4c(=O)c3c2)cn1 [MK-8033] + NC(=O)Nc1cc(-c2cccc(F)c2)sc1C(=O)N[C@H]1CCCNC1 [AZD7762] (partner 0.2 µM)
Method in brief: as §1

| Cell Line | relative viability (MK-8033 + Vorinostat; first compound 0.02 µM) | relative viability (MK-8033 + Vorinostat; first compound 0.06325 µM) | relative viability (MK-8033 + Vorinostat; first compound 0.2 µM) | relative viability (MK-8033 + Vorinostat; first compound 0.6325 µM) | relative viability (MK-8033 + Vorinostat; first compound 2 µM) | relative viability (MK-8033 + Decitabine; first compound 0.02 µM) | relative viability (MK-8033 + Decitabine; first compound 0.06325 µM) | relative viability (MK-8033 + Decitabine; first compound 0.2 µM) | relative viability (MK-8033 + Decitabine; first compound 0.6325 µM) | relative viability (MK-8033 + Decitabine; first compound 2 µM) | relative viability (Irinotecan + Navitoclax; first compound 0.6325 µM) | relative viability (Irinotecan + Navitoclax; first compound 2 µM) | relative viability (Irinotecan + Navitoclax; first compound 6.325 µM) | relative viability (Irinotecan + Navitoclax; first compound 20 µM) | relative viability (MK-8033 + AZD7762; first compound 0.02 µM) | relative viability (MK-8033 + AZD7762; first compound 0.06325 µM) | relative viability (MK-8033 + AZD7762; first compound 0.2 µM) | relative viability (MK-8033 + AZD7762; first compound 0.6325 µM) | relative viability (MK-8033 + AZD7762; first compound 2 µM) |
| --- | --- | --- | --- | --- | --- | --- | --- | --- | --- | --- | --- | --- | --- | --- | --- | --- | --- | --- | --- |
| SK-MES-1 | 1.2 | 0.987 | 1.03 | 1.04 | 1.03 | 0.355 | 0.362 | 0.4 | 0.407 | 0.499 | 1.29 | 1.22 | 0.226 | 0.208 | – | – | – | – | – |
| HOP-62 | 0.549 | 0.617 | 0.61 | 0.717 | 0.588 | 0.222 | 0.234 | 0.261 | 0.189 | 0.199 | 0.624 | 0.598 | 0.176 | 0.177 | 0.67 | 0.722 | 0.464 | 0.471 | 0.578 |
| NCI-H520 | 0.636 | 0.689 | 0.777 | 0.705 | 0.657 | 0.525 | 0.485 | 0.527 | 0.535 | 0.465 | 0.851 | 0.634 | 0.288 | 0.227 | – | – | – | – | – |
| EBC-1 | – | – | – | – | – | – | – | – | – | – | 0.304 | 0.406 | 0.378 | 0.133 | – | – | – | – | – |
| BEN | 0.594 | 0.537 | 0.602 | 0.547 | 0.67 | 0.805 | 0.702 | 0.655 | 0.71 | 0.761 | 0.0453 | 0.0844 | 0.0937 | 0.248 | 0.82 | 0.634 | 0.76 | 0.599 | 0.788 |
| NCI-H322M | 1.04 | 0.774 | 0.829 | 0.966 | 0.888 | 0.74 | 0.663 | 0.742 | 0.762 | 0.747 | 0.733 | 0.453 | 0.348 | 0.338 | 0.535 | 0.47 | 0.518 | 0.609 | 0.697 |
| LU99A | 0.511 | 0.495 | 0.565 | 0.53 | 0.433 | 0.853 | 0.901 | 0.849 | 0.951 | 0.883 | 0.188 | 0.231 | 0.195 | 0.242 | 0.522 | 0.27 | 0.367 | 0.458 | 0.317 |
| NCI-H2405 | 1.1 | 0.988 | 0.9 | 1.06 | 1.04 | 0.776 | 0.703 | 0.67 | 0.701 | 0.746 | – | 0.697 | 0.212 | 0.091 | 0.807 | 0.734 | 0.638 | 0.701 | 0.742 |
